Experimental data as given in US10894807B2 (Siemens Medical Solutions USA, Inc., priority 2011, dated 2021).

Molecular target: human PSMA (Homo sapiens (Human), UniProt Q04609)
Assay: Enzymatic assay for in vitro evaluation of PSMA inhibitors (fluorescent assay of PSMA activity, NAAG substrate, OPA detection of glutamate)
Assay type: biochemical

human PSMA, sequence (Q04609 whole entry): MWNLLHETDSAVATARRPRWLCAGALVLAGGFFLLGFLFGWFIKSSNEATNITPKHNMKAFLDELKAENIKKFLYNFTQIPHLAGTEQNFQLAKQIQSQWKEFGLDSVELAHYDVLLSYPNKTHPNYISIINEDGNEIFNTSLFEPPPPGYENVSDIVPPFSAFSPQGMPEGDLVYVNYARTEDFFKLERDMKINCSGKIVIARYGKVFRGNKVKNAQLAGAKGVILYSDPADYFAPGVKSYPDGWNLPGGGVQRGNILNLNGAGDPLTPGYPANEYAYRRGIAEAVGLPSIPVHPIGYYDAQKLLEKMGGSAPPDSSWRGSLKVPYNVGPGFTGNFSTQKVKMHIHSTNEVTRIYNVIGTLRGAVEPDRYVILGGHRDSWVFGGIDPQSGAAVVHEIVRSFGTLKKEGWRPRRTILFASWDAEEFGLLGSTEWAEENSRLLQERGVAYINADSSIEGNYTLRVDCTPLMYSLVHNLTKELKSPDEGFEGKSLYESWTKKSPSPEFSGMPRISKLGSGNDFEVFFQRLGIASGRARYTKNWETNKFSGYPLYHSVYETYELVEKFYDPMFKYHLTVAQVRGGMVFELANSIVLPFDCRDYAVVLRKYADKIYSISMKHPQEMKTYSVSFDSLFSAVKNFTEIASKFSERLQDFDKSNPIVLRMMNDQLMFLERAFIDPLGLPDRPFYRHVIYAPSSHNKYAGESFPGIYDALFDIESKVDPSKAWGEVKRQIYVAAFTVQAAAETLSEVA

| Ki [nM] | PSMA Blkg % (10 μM) [%] | PSMA Blkg % (1.0 μM) [%] | SMILES |
| --- | --- | --- | --- |
| 18.8 | 96 |  | O=C(O)CCC(CP(=O)(O)OC[C@@H]1CCCN1C(=O)CCCc1ccc(-n2cc(CCCF)nn2)cc1)C(=O)O (stereo partly drawn) [P207, 2-(((((S)-1-(4-(4-(4-(3-Fluoropropyl)-1H-1,2,3-triazol-1-yl)phenyl)butanoyl)pyrrolidin-2-yl)methoxy)(hydroxy)phosphoryl)methyl)pentanedioic Acid] |
|  | 75 |  | O=C(O)CC[C@H](NC(=O)C[C@@H](NC(=O)CCCNC(=O)OCc1ccccc1)C(=O)O)C(=O)O [P208, (10R,14S)-3,8,12-Trioxo-1-phenyl-2-oxa-4,9,13-triazahexadecane-10,14,16-tricarboxylic Acid] |
|  | 44 |  | O=C(O)CC[C@H](NC(=O)C[C@@H](NC(=O)CCCCCNC(=O)OCc1ccccc1)C(=O)O)C(=O)O [P209, (12R,16S)-3,10,14-Trioxo-1-phenyl-2-oxa-4,11,15-triazaoctadecane-12,16,18-tricarboxylic Acid] |
|  | 16 |  | O=C(O)CC[C@H](NC(=O)C[C@@H](NC(=O)Cc1ccc(F)cc1)C(=O)O)C(=O)O [P210, (S)-2-((R)-3-Carboxy-3-(2-(4-fluorophenyl)acetamido)propanamido)pentanedioic Acid] |
|  | 43 |  | O=C(O)CC[C@H](NC(=O)C[C@@H](NC(=O)CCCc1ccc(F)cc1)C(=O)O)C(=O)O [P211, (S)-2-((R)-3-Carboxy-3-(4-(4-fluorophenyl)butanamido)propanamido)pentanedioic Acid] |
| 3.1 | 99 |  | O=C(O)CC[C@H](NC(=O)N[C@@H](Cc1ccc(NC(=O)Nc2ccc(-n3cc(CCCF)nn3)cc2)cc1)C(=O)O)C(=O)O [P212, (S)-2-(3-((S)-1-Carboxy-2-(4-(3-(4-(4-(3-fluoropropyl)-1H-1,2,3-triazol-1-yl)phenyl)ureido)phenyl)ethyl)ureido)pentanedioic Acid] |
|  | 33 |  | O=C(O)CC[C@H](NC(=O)C[C@@H](NC(=O)c1ccc(F)nc1)C(=O)O)C(=O)O [P213, (S)-2-((R)-3-Carboxy-3-(6-fluoronicotinamido)propanamido)pentanedioic Acid] |
|  | 34 |  | O=C(O)CC[C@H](NC(=O)C[C@@H](NC(=O)NCCc1ccccc1)C(=O)O)C(=O)O [P214, (S)-2-((R)-3-Carboxy-3-(3-phenethylureido)propanamido)pentanedioic Acid] |
| 2.2 | 99 |  | O=C(O)CC[C@H](NC(=O)N[C@@H](Cc1ccc(NC(=O)c2ccc(-n3cc(CCCF)nn3)cc2)cc1)C(=O)O)C(=O)O [P215, (S)-2-(3-((S)-1-Carboxy-2-(4-(4-(4-(3-fluoropropyl)-1H-1,2,3-triazol-1-yl)-benzamido)-phenyl)ethyl)ureido)pentanedioic Acid] |
| 21.9 | 98 |  | O=C(O)CC[C@H](NC(=O)N[C@@H](Cc1ccc(NC(=O)COCCOCCOCCn2cc(CCCF)nn2)cc1)C(=O)O)C(=O)O [P216] |
| 31.3 | 96 |  | O=C(O)CC[C@H](NC(=O)N[C@@H](Cc1ccc(NC(=O)Cn2cc(CCCF)nn2)cc1)C(=O)O)C(=O)O [P217, (S)-2-(3-((S)-1-Carboxy-2-(4-(4-(4-(3-fluoropropyl)-1H-1,2,3-triazol-1-yl)-acetamido)-phenyl)ethyl)ureido)pentanedioic Acid] |
| 0.6 | 98 |  | O=C(O)CC[C@H](NC(=O)N[C@@H](CCCCNc1nc(-c2ccc(-n3cc(CCCF)nn3)cc2)cs1)C(=O)O)C(=O)O [P218, (S)-2-(3-((S)-1-Carboxy-5-((4-(4-(4-(3-fluoropropyl)-1H-1,2,3-triazol-1-yl)phenyl)thiazol-2-yl)amino)pentyl)ureido)pentanedioic Acid] |
|  | 74 |  | O=C(O)CC[C@H](NC(=O)C[C@@H](NC(=O)CCCc1ccc(-n2cc(CCCF)nn2)cc1)C(=O)O)C(=O)O [P219, (S)-2-((R)-3-Carboxy-3-(4-(4-(4-(3-fluoropropyl)-1H-1,2,3-triazol-1-yl)phenyl)butanamido)-propanamido)pentanedioic Acid] |
|  |  | 34 | O=C(O)CC[C@H](NC(=O)C[C@@H](NC(=O)CCc1ccc(-n2cc(CCCF)nn2)cc1)C(=O)O)C(=O)O [P220, (S)-2-((R)-3-Carboxy-3-(3-(4-(4-(3-fluoropropyl)-1H-1,2,3-triazol-1-yl)phenyl)-propanamido)-propanamido)pentanedioic Acid] |
|  |  | 15 | O=C(O)CC[C@H](NC(=O)C[C@@H](NC(=O)c1ccc(-n2cc(CCCF)nn2)cc1)C(=O)O)C(=O)O [P221, (S)-2-((R)-3-Carboxy-3-(4-(4-(3-fluoropropyl)-1H-1,2,3-triazol-1-yl)benzamido)propanamido)-pentanedioic Acid] |
| 0.56 |  | 98 | O=C(O)CC[C@H](NC(=O)N[C@@H](Cc1ccc(NC(=O)N2CCN(C(=O)OCc3ccccc3)CC2)cc1)C(=O)O)C(=O)O [P222] |

| Ki [nM] | PSMA Blkg % (10 μM) [%] | PSMA Blkg % (1.0 μM) [%] | SMILES |
| --- | --- | --- | --- |
| 1.1 |  | 98 | O=C(O)CC[C@H](NC(=O)N[C@@H](Cc1ccc(NC(=O)Nc2ccc(C[C@H](NC(=O)N[C@@H](CCC(=O)O)C(=O)O)C(=O)O)cc2)cc1)C(=O)O)C(=O)O [P223, (2S,2′S)-2,2′-(((((1S,1′S)-((Carbonylbis(azanediyl))bis(4,1-phenylene))bis(1-carboxyethane-2,1-diyl))bis(azanediyl))bis(carbonyl))bis(azanediyl))dipentanedioic Acid] |
|  |  | 65 | O=C(O)CC[C@H](NC(=O)N[C@@H](COC(=O)N1CCN(C(=O)OCc2ccccc2)CC1)C(=O)O)C(=O)O [P224, (S)-2-(3-((S)-2-((4-((Benzyloxy)carbonyl)piperazine-1-carbonyl)oxy)-1-carboxyethyl)ureido)pentanedioic Acid] |
|  |  | 7 | O=C(O)CCC(CP(=O)(O)OCCC1CCN(C(=O)CCc2ccc(-n3cc(CCCF)nn3)cc2)CC1)C(=O)O (stereo not drawn) [P225, 2-(((2-(1-(3-(4-(4-(3-Fluoropropyl)-1H-1,2,3-triazol-1-yl)phenyl)propanoyl)piperidin-4-yl)ethoxy)(hydroxy)phosphoryl)methyl)pentanedioic Acid] |
|  |  | 32 | O=C(O)CCC(CP(=O)(O)OCC1CCN(C(=O)CCCc2ccc(-n3cc(CCCF)nn3)cc2)CC1)C(=O)O (stereo not drawn) [P226, 2-((((1-(4-(4-(4-(3-Fluoropropyl)-1H-1,2,3-triazol-1-yl)phenyl)butanoyl)piperidin-4-yl)methoxy)(hydroxy)phosphoryl)methyl)pentanedioic Acid] |
|  |  | 15 | O=C(O)CCC(CP(=O)(O)OCCC1CCN(C(=O)c2ccc(-n3cc(CCCF)nn3)cc2)CC1)C(=O)O (stereo not drawn) [P227, 2-(((2-(1-(4-(4-(3-Fluoropropyl)-1H-1,2,3-triazol-1-yl)benzoyl)piperidin-4-yl)ethoxy)(hydroxy)phosphoryl)methyl)pentanedioic Acid] |
|  |  | 24 | O=C(O)CC[C@H](NC(=O)C[C@@H](NC(=O)Cn1cc(CCCF)nn1)C(=O)O)C(=O)O [P228, (S)-2-((R)-3-Carboxy-3-(2-(4-(3-fluoropropyl)-1H-1,2,3-triazol-1-yl)acetamido)propanamido)-pentanedioic Acid] |
|  |  | 25 | O=C(O)CC[C@H](NC(=O)C[C@@H](NC(=O)N1CCN(C(=O)OCc2ccccc2)CC1)C(=O)O)C(=O)O [P229, (S)-2-((R)-3-(4-((Benzyloxy)carbonyl)piperazine-1-carboxamido)-3-carboxypropanamido)-pentanedioic Acid] |
| 13 |  | 95 | O=C(O)CC[C@H](NC(=O)NC(CC1CCN(C(=O)CCCc2ccc(-n3cc(CCCF)nn3)cc2)CC1)C(=O)O)C(=O)O (stereo partly drawn) [P230, (2S)-2-(3-(1-Carboxy-2-(1-(4-(4-(4-(3-fluoropropyl)-1H-1,2,3-triazol-1-yl)phenyl)butanoyl)-piperidin-4-yl)ethyl)ureido)pentanedioic Acid] |
|  |  | 63 | O=C(O)CCC(C(=O)O)N1C(=O)N[C@@H](CC2CCN(C(=O)CCCc3ccc(-n4cc(CCCF)nn4)cc3)CC2)C1=O (stereo partly drawn) [P231] |
|  |  | 96 | O=C(O)CC[C@H](NC(=O)N[C@@H](CCCCNc1nc(-c2ccc(F)cc2)cs1)C(=O)O)C(=O)O [P232, (S)-2-(3-((S)-1-Carboxy-5-(4-(4-fluorophenyl)thiazol-2-ylamino)pentyl)ureido)pentanedioic Acid] |
|  |  | 96 | O=C(O)CC[C@H](NC(=O)N[C@@H](CCCCNc1nc(-c2cccc([N+](=O)[O-])c2)cs1)C(=O)O)C(=O)O [P233, (S)-2-(3-((S)-1-Carboxy-5-(4-(3-nitrophenyl)thiazol-2-ylamino)pentyl)ureido)pentanedioic Acid] |
|  |  | 86 | O=C(O)CC[C@H](NC(=O)N[C@@H](CCCCNc1nc(-c2cc3ccccc3s2)cs1)C(=O)O)C(=O)O [P234, (S)-2-(3-((S)-5-(4-(Benzo[b]thiophen-2-yl)thiazol-2-ylamino)-1-carboxypentyl)ureido) pentanedioic Acid] |
| < 0.3 |  | 100 | O=C(O)CC[C@H](NC(=O)N[C@@H](CCCCNc1nc(-c2ccc3c(c2)OCO3)cs1)C(=O)O)C(=O)O [P235, (S)-2-(3-((S)-5-(4-(Benzo[d][1,3]dioxol-5-yl)thiazol-2-ylamino)-1-carboxypentyl)ureido)-pentanedioic Acid] |
|  |  | 99 | O=C(O)CC[C@H](NC(=O)N[C@@H](CCCCNc1nc(-c2ccnc(Cl)c2)cs1)C(=O)O)C(=O)O [P236, (S)-2-(3-((S)-1-Carboxy-5-(4-(2-chloropyridin-4-yl)thiazol-2-ylamino)pentyl)ureido)-pentanedioic Acid] |
| 3.8 |  | 100 | O=C(O)CC[C@H](NC(=O)N[C@@H](Cc1ccc(NC(=O)N2CCN(C(=O)Cn3cc(CCCF)nn3)CC2)cc1)C(=O)O)C(=O)O [P237, (S)-2-(3-((S)-1-Carboxy-2-(4-(4-(2-(4-(3-fluoropropyl)-1H-1,2,3-triazol-1-yl)acetyl)piperazine-1-carboxamido)phenyl)ethyl)ureido)pentanedioic Acid] |
